Data reported in the OPERA property sets (Mansouri et al. 2018).

SMILES: C[Si](O)(c1ccccc1)c1ccccc1
- melting point: 167 °C

SMILES: CC(C)(O)Cc1ccccc1
- boiling point: 215 °C
- melting point: 24 °C

SMILES: NS(=O)(=O)c1cc2c(s1)SCCC2=O
- melting point: 222 °C

SMILES: OC1CCCC1
- boiling point: 140 °C
- log10 vapour pressure (mmHg): 0.396
- melting point: -19 °C

SMILES: CCCCCCCCCc1ccc2ccccc2c1
- boiling point: 372 °C
- melting point: 12 °C

SMILES: O=C(O)Cc1c(Cl)ccc(Cl)c1Cl
- log10 Koc (L/kg): 1.8
- melting point: 161 °C

SMILES: CC(C)C(C)(O)C(C)C
- boiling point: 156 °C

SMILES: c1ccc2c(c1)OCCOCCOCCOCCO2
- melting point: 79 °C

SMILES: CCCCCCCCCCCCCCCCCCCCCCCCCCCCC
- boiling point: 441 °C
- log10 biodegradation half-life (days): 2
- log10 vapour pressure (mmHg): -9.37
- melting point: 63.7 °C
- ready biodegradability: readily biodegradable

SMILES: CCOC(=O)C(Cl)C(=O)OCC
- boiling point: 222 °C

SMILES: CC(C)c1cc(C(C)C)c(C(C)C)cc1C(C)C
- boiling point: 259 °C
- log10 vapour pressure (mmHg): -2.7
- melting point: 118 °C

SMILES: CCCCCc1ccc(-c2ccccc2)cc1
- log10 biotransformation half-life (days) (fish): 0.03

SMILES: CCc1c(C)[nH]c2c1C(=O)C(CN1CCOCC1)CC2 (stereo not drawn)
- melting point: 180 °C

SMILES: CCCc1ccncc1
- boiling point: 185 °C

SMILES: FC(F)(F)C(F)(F)C(F)(F)C(F)(F)C(F)(F)C(F)(F)Br
- boiling point: 98 °C

SMILES: CCCC(C)CC=O (stereo not drawn)
- boiling point: 143 °C

SMILES: O=P1(N(CCCl)CCCl)NCCCO1 (stereo not drawn)
- melting point: 51.5 °C
- ready biodegradability: not readily biodegradable

SMILES: CCCCCCCCCCCCCl
- boiling point: 260 °C
- log10 vapour pressure (mmHg): -2.2
- melting point: -9.3 °C
- ready biodegradability: readily biodegradable

SMILES: O=S(=O)(O)c1cc(S(=O)(=O)O)c2c(/N=N\c3ccc(S(=O)(=O)O)c4ccccc34)c(O)ccc2c1
- ready biodegradability: not readily biodegradable

SMILES: CCOc1cccc(-c2ccccc2)c1
- boiling point: 305 °C
- melting point: 35 °C

SMILES: CCCCC[C@H](O)/C=C/[C@@H]1[C@@H](C/C=C\CCCC(=O)O)[C@@H](O)C[C@H]1O
- melting point: 30 °C

SMILES: CCCOC(=O)CCl
- boiling point: 161 °C

SMILES: CCN(Cc1ccccc1)c1ccccc1
- boiling point: 288 °C
- melting point: 35 °C

SMILES: CCC1CCc2ccccc2C1 (stereo not drawn)
- boiling point: 235 °C
- melting point: -42.8 °C

SMILES: Sc1c(Cl)c(Cl)c(Cl)c(Cl)c1Cl
- melting point: 232 °C

SMILES: CCCCCCCOC(=O)CCCCCCC
- boiling point: 290 °C
- melting point: -10.6 °C

SMILES: CCN(C#N)CC
- boiling point: 188 °C
- melting point: -80.6 °C

SMILES: NCCS(=O)(=O)O
- melting point: 328 °C

SMILES: O=C(O)CCC(=O)c1ccc(-c2ccccc2)cc1
- melting point: 186 °C

SMILES: O=C(Cl)c1ccccc1Br
- boiling point: 243 °C
- melting point: 11 °C

SMILES: O=Cc1cccc(Cl)c1
- boiling point: 214 °C
- melting point: 17.5 °C

SMILES: CCCCCC#CC(=O)O
- melting point: 4 °C

SMILES: CC(=O)OCCCl
- boiling point: 145 °C

SMILES: CC(=O)OC1CCCCC1C(C)(C)C (stereo not drawn)
- melting point: 35 °C

SMILES: O=C(CF)c1ccccc1
- melting point: 29 °C

SMILES: CCCCCCCCCCCCCCCCCC(=O)OCCCC
- boiling point: 343 °C
- melting point: 27 °C

SMILES: c1ccc(CNc2ccccc2)cc1
- boiling point: 306 °C
- melting point: 37.5 °C

SMILES: CCNc1nc(NC(C)C(C)C)nc(SC)n1 (stereo not drawn)
- log10 vapour pressure (mmHg): -5.85
- melting point: 65 °C

SMILES: COC(=O)c1ccc([N+](=O)[O-])cc1
- melting point: 95 °C

SMILES: O=c1n(-c2ccccc2)c(=O)n(-c2ccccc2)c(=O)n1-c1ccccc1
- melting point: 285 °C

SMILES: CCCCN(CCCC)C(=O)COC(=O)c1ccccc1
- melting point: 25 °C

SMILES: C=CCCCC=C
- melting point: -129 °C

SMILES: C/C=C(/C(=C/C)c1ccc(O)cc1)c1ccc(O)cc1
- melting point: 228 °C

SMILES: CN(C)C=Nc1ccccc1
- boiling point: 127 °C

SMILES: O=c1ccc2cc3ccoc3cc2o1
- melting point: 164 °C

SMILES: CC(=O)c1ccc(F)cc1
- boiling point: 196 °C

SMILES: C[C@@](Cc1ccc(O)c(O)c1)(NN)C(=O)O
- melting point: 208 °C

SMILES: CCCCCCCC(=O)OCC
- boiling point: 208 °C
- log10 Koc (L/kg): 3.02
- melting point: -43.1 °C

SMILES: Oc1c(Br)c(Br)c(O)c(Br)c1Br
- melting point: 244 °C

SMILES: O=C(O)c1cc(I)c(O)c(I)c1
- melting point: 237 °C

SMILES: CCCCOC(=O)c1ccccc1C(=O)OC1CCCCC1
- log10 vapour pressure (mmHg): -5.32

SMILES: O=C1CCCCC1
- boiling point: 155 °C
- log10 Henry constant (atm·m³/mol): -5.05
- log10 vapour pressure (mmHg): 0.636
- melting point: -31 °C
- ready biodegradability: readily biodegradable

SMILES: NCCNCCNCCNCCN
- boiling point: 342 °C
- melting point: -30 °C

SMILES: C#CC1(O)CCCC1
- boiling point: 158 °C
- melting point: 27 °C

SMILES: CC(C)C[N+](=O)[O-]
- boiling point: 140 °C
- log10 vapour pressure (mmHg): 0.838
- melting point: -76.8 °C

SMILES: CCCC(=O)OC1CCCCC1
- boiling point: 213 °C

SMILES: O=[N+]([O-])c1cc(Br)ccc1O
- melting point: 92 °C

SMILES: COC(=O)C1C2C=CC(C2)C1C(=O)OC (stereo not drawn)
- melting point: 38 °C

SMILES: C[Si](C)(C)Cl
- boiling point: 60 °C
- log10 vapour pressure (mmHg): 2.37
- melting point: -40 °C

SMILES: CCC(Oc1ccc(C(C)(C)CC)cc1C(C)(C)CC)C(=O)Nc1ccc(NC(=O)C(F)(F)C(F)(F)C(F)(F)F)c(O)c1 (stereo not drawn)
- ready biodegradability: not readily biodegradable

SMILES: O=C(c1ccccc1)C1CCC1
- boiling point: 260 °C

SMILES: CC(C)(c1ccc(OCCO)cc1)c1ccc(OCCO)cc1
- ready biodegradability: not readily biodegradable

SMILES: O=c1cccc2n1CC1CNCC2C1 (stereo not drawn)
- melting point: 152 °C

SMILES: CCCCCCCCCCCCCCCCC(=O)O
- boiling point: 364 °C
- log10 vapour pressure (mmHg): -7.21
- melting point: 61.3 °C
